Patent publication US20170095496A1, “GALACTOSIDE INHIBITORS FOR NEW USES” (GALECTO BIOTECH AB, priority 2014, published 2017)
“Also recorded” adds a separate entry of the source.

Key:
galectins = conditions: compared with N-acetyllactosamine; cited from earlier work
BV2 microglial cells [1] = assay: Phagocytic assay (uptake of IgG-FITC beads) in α-synuclein-activated BV2 microglia; format: cell-based, Murine; conditions: for phagocytic ability on adding galectin-3 protein: BV2 cells, 12 h
Description: We measure microglial phagocytosis using a phagocytosis assay kit (Cayman Chem, USA) according to the protocol provided by the manufacturer's. We plated 5×10^4 cells/well in 96 well plates for 12 h before treating the cells with α-synuclein 20 μM for additional 12 h. Thereafter IgG-FITC beads we added with or without galectin-3 inhibitor for 12 h. The phagocytic ability was analyzed by a fluorescent plate reader (FluoStar Optima, BMG, LabTech, Sweden).
To test the implication of galectin-3 on phagocytic ability of microglial cells in our model of α-synuclein induced activation, we pre-treated the cells with 100 μM of galectin-3 inhibitor for 30 min and subsequently treated them with α-synuclein aggregates or combining both for 12 h. Microglial cells activated with α-synuclein show high phagocytic activity (FIG. 4).

BV2 microglial cells [2] = assay: iNOS expression by western blot in BV2 microglia activated with α-synuclein; format: cell-based, Murine; conditions: for down regulation of iNOS expression: α-synuclein aggregates 20 μM; for inhibition of iNOS expression induced by α-synuclein monomers: inhibitor 30 min pre-treatment, monomers 20 μM
Description: Murine (microglial cell line (BV2 cells)) was culture in Dulbecco's modified Eagle's medium (DMEM) containing 10% Fetal Bovine Serum (Invitrogen) with 100 U/ml Penicillin and 100 U/ml Streptomycin (Invitrogen) in 5% CO2 atmosphere at 37° C. One day before BV2 were seeded at a concentration of 2×10^5 cells/well in 24 wells plate (Nunc). The BV2 cells were treated with α-synuclein monomers and aggregates at different concentrations: 5 μM, 10 μM and 20 μM. The cells were also treated with LPS (Sigma-Aldrich) at 1 μg/ml. All the treatments were conducted for 12 h.
We used a small inhibitory molecule for galectin-3 activity, bis-{3-deoxy-3-[4-(3-fluorophenyl)-1H-1,2,3-triazol-1-yl]-β-D-galactopyranosyl} sulfane (Mackinnon et al., 2012, Volarevic et al., 2012, Saksida et al., 2013). This inhibitor was used as pre-treatment for 30 min throughout the study, except in the phagocytic assay when we used 12 h incubation time. To test the inhibitor ability alter α-synuclein-induced inflammation, we tested different concentration, from 5 μM to 100 μM. After 30 min pre-treatment with the inhibitor, we add the treatments of α-synuclein monomers or aggregates of at different concentration for 12 h. The inhibitor is dilute in DMSO (40%) and distilled water (60%) in a stock concentration of 4 mM.
Transfection of BV2 cells was carried out using Lipofectamine 2000 (Invitrogen) following the manufacturer's recommendation. Non-targeting control and galectin-3 siRNAs were obtained from Dharmacon. (SMART pool) siRNA sequence used: siLGal3S3(1) J-041097-09 GAGAGAUACCCAUCGCUUU (SEQ ID NO:4), siLGal3S3(2) J-041097-10 ACUUCAAGGUUGCGGUCAA (SEQ ID NO:5), siLGal3S3(3) J-041097-11 ACAGUGAAACCCAACGCAA (SEQ ID NO:6), siLGal3S3(4) J-041097-12 GGAUGAAGAACCUCCGGGA (SEQ ID NO:7).
Western blot was performed for iNOS and galectin-3 protein levels for BV2 microglial cell or for primary microglial cells. Briefly, 5 or 10 μg of proteins of sample were loaded on 4-20% Mini-Protean TGX Precast Gels (Bio-Rad) and the transferred to Nitrocellulose membrane (Bio-Rad) using Trans-Blot Turbo System (Bio-Rad). We blocked the membrane during 1 h at room temperature with 10% Casein (Sigma-Aldrich) diluted in PBS (tablets, Sigma-Aldrich). After blocking we incubate with the primary appropriate antibody at 4° C. overnight. We clean the membranes with PBS-Tween 20 (0.1%) and then incubate during 2 h at room temperature with the appropriate peroxidase secondary antibody (Vector Labs). Each blot was developed using Clarity Western ECL Substrate (Biorad). The protein level, measured by Bradford assay (Thermo Scientific), was normalized correcting the protein level with β-Actin. The results were normalized to the highest concentration used (20 μM) in each experiment in order to normalize inflammatory response. We also used Western Blot to estimate the composition of the α-synuclein aggregates that we generated from monomeric α-synuclein.
Next, we wanted to assess the role of galectin-3 inhibition in α-synuclein-induced activation of microglial cells. To this end, microglial cells were pretreated with the galectin-3 inhibitor at different concentrations (5, 25, 50 and 100 μM), for 30 min, then the cells were washed to remove the inhibitor to further treat them with α-synuclein monomers or aggregates (20 μM) for 12 h whereafter the iNOS protein expression levels were analyzed. […] Indeed, more than 50% down regulation of iNOS expression was found at 50 and 100 μM inhibitor treatment.
To further test the role of galectin-3 in microglial activation, we decided to knockdown galectin-3 expression in BV2 cells using small interferring RNA (siRNA). Galectin-3 and siRNA negative control knocked-down cells were treated with α-synuclein aggregates (20 μM) for 12 h and their iNOS expression levels were compared using western blot analysis. […] Western blot analysis showing iNOS and β-actin protein levels.

BV2 cells = assay: XTT viability assay; format: cell-based, Murine; conditions: alone or in combination with α-synuclein aggregates; data not shown
Description: To test if the α-synuclein, the galectin-3 inhibitor, or both, are toxic for BV2 cells in different conditions, we used an in vitro viability assay kit based on a XTT (Sigma-Aldrich) reduction spectrophotometric method to estimate the mitochondrial activity in living cells. The assay was performed following manufacturer's protocol provided in the kit. The absorbance was measured by spectrophotometrically using a plate reader.

Compound: OC[C@H]1O[C@@H](S[C@@H]2O[C@H](CO)[C@H](O)[C@H](O)[C@H]2O)[C@H](O)[C@@H](O)[C@H]1O [thiodigalactoside]
- efficiency as galectin inhibitor (galectins): approximately as efficient as N-acetyllactosamine

Compound: galectin-3 protein: galectin-3 protein added to microglial cells in the phagocytic assay
- phagocytic ability on adding galectin-3 protein (BV2 microglial cells [1]): increases the phagocytic ability to a similar extent as α-synuclein aggregates
- phagocytic ability on adding galectin-3 protein (BV2 microglial cells [1]; listed as galectin-3): recover the phagocytic ability

Compound: OC[C@H]1O[C@@H](S[C@@H]2O[C@H](CO)[C@H](O)[C@H](n3cc(-c4cccc(F)c4)nn3)[C@H]2O)[C@H](O)[C@@H](n2cc(-c3cccc(F)c3)nn2)[C@H]1O [TD139, Bis-{3-deoxy-3-[4-(3-fluorophenyl)-1H-1,2,3-triazol-1-yl]-β-D-galactopyranosyl} sulfane]
- down regulation of iNOS expression (BV2 microglial cells [2]; 50 μM inhibitor, 30 min pre-treatment, 12 h): more than 50%
- down regulation of iNOS expression (BV2 microglial cells [2]; 100 μM inhibitor, 30 min pre-treatment, 12 h): more than 50%
- inhibition of iNOS expression induced by α-synuclein aggregates (BV2 microglial cells [2]; inhibitor 5, 25, 50 and 100 μM, 30 min pre-treatment, aggregates 20 μM, 12 h): significantly inhibited
- inhibition of iNOS expression induced by α-synuclein monomers (BV2 microglial cells [2]; 12 h): not significantly inhibited
- inhibition of iNOS expression induced by α-synuclein monomers (BV2 microglial cells [2]; 12 h, listed as galectin-3 inhibitor): not to monomers
- inflammatory response induced by α-synuclein (BV2 microglial cells [2]; summary statement, BV2 microglia): significant reduction
- cell viability (BV2 cells): does not negatively affect cell viability
- phagocytic ability (BV2 microglial cells [1]; 100 μM inhibitor as 30 min pre-treatment only): couldn't find any difference
- phagocytic ability (BV2 microglial cells [1]; 100 μM inhibitor combined with α-synuclein aggregates 20 μM for 12 h): reduced phagocytic ability; also recorded: robustly inhibited the phagocytosis
- phagocytic ability (BV2 microglial cells [1]; 100 μM inhibitor combined with α-synuclein aggregates 20 μM for 12 h, listed as galectin-3 inhibitor): robustly reduced to control levels
